Drawing on ChEMBL document CHEMBL5727068, “Inhibitors of PTP4A3 for the treatment of cancer” (2019), this text covers IC50 for one compound.

The IC50 is the concentration that gives 50% inhibition.

This experiment addresses Protein tyrosine phosphatase type IVA 3 (Homo sapiens, UniProt O75365). The experiment in a line: In Vitro Biochemical Evaluation: The in vitro biochemical evaluation of all compounds was carried out using recombinant human PTP4A3, overexpressed as a His6-tag fusion protein in E. coli and purified on a metal affinity column. Assays were performed using 6,8-difluoro-4-methylumbelliferyl phosphate (DiFMUP) as an artificial substrate at 25° C. for 30 min in 40 mM Tris-HCl (pH 7.0), 75 mM NaCl, 2 mM EDTA, and 4 mM DTT buffer. […] The fluorescence was measured using a SpectraMax M5 plate reader at 358 nm excitation and 455 nm emission. Fluorescence values were used to calculate the percent inhibition of enzyme activity relative to maximal activity, PTP4A3 in the absence of inhibitor, and maximal inhibition, PTP4A3 in the presence of 2 mM Na3VO4.

Protein tyrosine phosphatase type IVA 3, sequence (O75365 whole entry, the tested form may be a part): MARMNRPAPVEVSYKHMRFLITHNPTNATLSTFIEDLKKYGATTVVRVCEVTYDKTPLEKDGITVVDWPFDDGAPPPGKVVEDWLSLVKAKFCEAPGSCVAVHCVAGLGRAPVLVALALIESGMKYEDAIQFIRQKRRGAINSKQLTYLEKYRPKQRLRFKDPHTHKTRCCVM

Consider `O=c1[nH]c(=O)c2cc(-c3ccccc3)sc2[nH]1`, for which the IC50 was > 250 µM.
